Target: Recombinant Human Enteropeptidase (Homo sapiens (Human), UniProt P98073)
Test: Enteropeptidase Inhibition Assay
Assay type: biochemical
Conditions: substrate Acetyl-Asp-Asp-Asp-Asp-Lys-AFC 30 μM, 30° C., 1 hour; Ki calculated from IC50 using Cheng-Prusoff equation
Protocol: Enteropeptidase Inhibition Assay
The inhibitory activity of the enteropeptidase inhibitor synthesized using the purified Recombinant Human Enteropeptidase and the substrate Acetyl-Asp-Asp-Asp-Asp-Lys-AFC (BioVision) was measured. 7.2 ng/mL of Enteropeptidase diluted with a buffer (20 mM Tris, 50 mM NaCl, pH 7.5) in a 96 well plate (Costar), 30 μM of Acetyl-Asp-Asp-Asp-Asp-Lys-AFC, several concentrations of Enteropeptidase inhibitors (1% DMSO concentration) were dispensed such that a final volume was 100 μL, and then the enzyme reaction was carried out at 30° C. for 1 hour. At this time, 1% DMSO, a substrate and Enteropeptidase instead of the compound were dispensed onto positive control wells, and 1% DMSO and a substrate were dispensed onto negative control wells. The enzyme reaction was […] using an excitation wavelength of 380 nm and an emission wavelength of 500 nm in a fluorescence spectrometer, and then the rate of increase in fluorescence (milli-units per min) between 20 and 60 minutes was measured.
The fluorescence measurement values reduced by the inhibitor diluted at each concentration were converted into relative values % of the positive control group (100% reactivity) and the negative control group (0% reactivity), and used to calculate IC50 values. IC50 is the concentration of the inhibitor that inhibits the enzyme activity by 50%, and was calculated using PRISM (GraphPad). Ki values were calculated from the IC50 values using Cheng-Prusoff equation.

Recombinant Human Enteropeptidase, sequence (P98073 whole entry): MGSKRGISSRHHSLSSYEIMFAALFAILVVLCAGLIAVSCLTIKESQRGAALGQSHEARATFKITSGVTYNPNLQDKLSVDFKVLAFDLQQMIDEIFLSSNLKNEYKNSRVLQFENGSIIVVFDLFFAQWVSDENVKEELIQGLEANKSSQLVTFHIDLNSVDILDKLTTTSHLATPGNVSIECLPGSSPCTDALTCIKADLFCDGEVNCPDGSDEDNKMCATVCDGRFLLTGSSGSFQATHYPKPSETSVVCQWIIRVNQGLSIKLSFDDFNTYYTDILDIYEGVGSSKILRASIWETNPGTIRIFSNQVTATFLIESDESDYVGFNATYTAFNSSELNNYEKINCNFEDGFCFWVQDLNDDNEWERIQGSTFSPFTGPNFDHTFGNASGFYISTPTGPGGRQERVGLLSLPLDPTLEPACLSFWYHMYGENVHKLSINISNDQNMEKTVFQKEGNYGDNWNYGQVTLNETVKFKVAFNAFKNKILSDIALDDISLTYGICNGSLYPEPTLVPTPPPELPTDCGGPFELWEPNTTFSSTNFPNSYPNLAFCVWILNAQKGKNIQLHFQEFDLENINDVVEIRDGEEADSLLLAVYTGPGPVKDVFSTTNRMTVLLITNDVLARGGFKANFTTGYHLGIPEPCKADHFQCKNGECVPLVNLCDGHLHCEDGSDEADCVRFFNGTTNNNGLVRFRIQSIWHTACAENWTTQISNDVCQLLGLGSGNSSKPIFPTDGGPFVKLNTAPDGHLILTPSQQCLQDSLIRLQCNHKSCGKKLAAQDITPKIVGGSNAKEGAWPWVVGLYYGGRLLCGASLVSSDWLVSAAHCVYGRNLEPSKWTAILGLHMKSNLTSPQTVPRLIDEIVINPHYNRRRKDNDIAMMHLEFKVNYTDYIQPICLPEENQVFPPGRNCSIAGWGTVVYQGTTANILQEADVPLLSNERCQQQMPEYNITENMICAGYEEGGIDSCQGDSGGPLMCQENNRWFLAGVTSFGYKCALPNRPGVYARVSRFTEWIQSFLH

SMILES	Ki
CN(CCCC(=O)O)C(=O)C1CCN(c2ncc(C(=O)Oc3ccc(C(=N)N)cc3F)s2)CC1 [Example 44, 4-(1-(5-((4-carbamimidoyl-2-fluorophenoxy)carbonyl)thiazol-2-yl)-N-methylpiperidine-4-carboxamido)butanoic Acid]	1.6 nM
CC(C)(CNC(=O)C1CCN(c2ncc(C(=O)Oc3ccc(C(=N)N)cc3F)s2)CC1)C(=O)O [Example 45, 3-(1-(5-((4-Carbamimidoyl-2-fluorophenoxy)carbonyl)thiazol-2-yl)piperidine-4-carboxamido)-2,2-dimethylpropanoic Acid]	1.5 nM
CCN(CCC(=O)N[C@@H](CC(=O)OC(C)(C)C)C(=O)OC(C)(C)C)c1ncc(C(=O)Oc2ccc(C(=N)N)cc2F)s1 [Example 46, Di-tert-butyl(3-((5-((4-carbamimidoyl-2-fluorophenoxy)carbonyl)thiazol-2-yl)(ethyl)amino)propanoyl)-L-aspartate]	40 nM
CCN(CCC(=O)N[C@@H](CC(=O)O)C(=O)O)c1ncc(C(=O)Oc2ccc(C(=N)N)cc2F)s1 [Example 47, (3-((5-((4-Carbamimidoyl-2-fluorophenoxy)carbonyl)thiazol-2-yl)(ethyl)amino)propanoyl)-L-aspartic Acid]	0.52 nM
CCN(CCC(=O)N[C@H](CCC(=O)OC(C)(C)C)C(=O)OC(C)(C)C)c1ncc(C(=O)Oc2ccc(C(=N)N)cc2F)s1 [Example 48]	37 nM
CCN(CCC(=O)N[C@H](CCC(=O)O)C(=O)O)c1ncc(C(=O)Oc2ccc(C(=N)N)cc2F)s1 [Example 49, (3-((5-((4-Carbamimidoyl-2-fluorophenoxy)carbonyl)thiazol-2-yl)(ethyl)amino)propanoyl)-D-glutamic Acid]	0.57 nM
CCN(CCC(=O)Nc1ccc(C(=O)OC)cc1)c1ncc(C(=O)Oc2ccc(C(=N)N)cc2F)s1 [Example 50, 4-Carbamimidoyl-2-fluorophenyl 2-(ethyl(3-((4-(methoxycarbonyl)phenyl)amino)-3-oxopropyl)amino)thiazole-5-carboxylate]	14 nM
CCN(CCC(=O)Nc1cccc(C(=O)OC)c1)c1ncc(C(=O)Oc2ccc(C(=N)N)cc2F)s1 [Example 51, 4-Carbamimidoyl-2-fluorophenyl 2-(ethyl(3-((3-(methoxycarbonyl)phenyl)amino)-3-oxopropyl)amino)thiazole-5-carboxylate]	9.7 nM
CCN(CCC(=O)Nc1ccc(C(=O)OC(C)(C)C)cc1)c1ncc(C(=O)Oc2ccc(C(=N)N)cc2F)s1 [Example 52, 4-Carbamimidoyl-2-fluorophenyl 2-((3-((4-(tert-butoxycarbonyl)phenyl)amino)-3-oxopropyl)(ethyl)amino)thiazole-5-carboxylate]	82 nM
CCN(CCC(=O)Nc1cccc(C(=O)OC(C)(C)C)c1)c1ncc(C(=O)Oc2ccc(C(=N)N)cc2F)s1 [Example 53]	12 nM
CCN(CCC(=O)Nc1cccc(C(=O)O)c1)c1ncc(C(=O)Oc2ccc(C(=N)N)cc2F)s1 [Example 54, 3-(3-((5-((4-Carbamimidoyl-2-fluorophenoxy)carbonyl)thiazol-2-yl)(ethyl)amino)propanamido)benzoic Acid]	2.5 nM
CCN(CCC(=O)Nc1ccc(C(=O)O)cc1)c1ncc(C(=O)Oc2ccc(C(=N)N)cc2F)s1 [Example 55, 4-(3-((5-((4-Carbamimidoyl-2-fluorophenoxy)carbonyl)thiazol-2-yl)(ethyl)amino)propanamido)benzoic Acid]	8.2 nM
CC(C)(CNc1nc2ccc(C(=O)Oc3ccc(C(=N)N)cc3F)cc2s1)C(=O)O [Example 56, 3-((6-((4-Carbamimidoyl-2-fluorophenoxy)carbonyl)benzo[d]thiazol-2-yl)amino)-2,2-dimethylpropanoic Acid]	0.59 nM
COC(=O)C1CCN(c2nc3ccc(C(=O)Oc4ccc(C(=N)N)cc4)cc3s2)CC1 [Example 57, 4-Carbamimidoylphenyl 2-(4-(methoxycarbonyl)piperidin-1-yl)benzo[d]thiazole-6-carboxylate]	13 nM
N=C(N)c1ccc(OC(=O)c2ccc3nc(N4CCC(C(=O)O)CC4)sc3c2)cc1 [Example 58, 1-(6-((4-Carbamimidoylphenoxy)carbonyl)benzo[d]thiazol-2-yl)piperidine-4-carboxylic Acid]	7.4 nM
COC(=O)CCNc1nc2ccc(C(=O)Oc3ccc(C(=N)N)cc3)cc2s1 [Example 59, 4-Carbamimidoylphenyl 2-((3-methoxy-3-oxopropyl)amino)benzo[d]thiazole-6-carboxylate]	14 nM
COC(=O)CCN(C)c1nc2ccc(C(=O)Oc3ccc(C(=N)N)cc3)cc2s1 [Example 60, 4-Carbamimidoylphenyl 2-((3-methoxy-3-oxopropyl)(methyl)amino)benzo[d]thiazole-6-carboxylate]	10 nM

SMILES	Ki
CCN(CCC(=O)OC)c1nc2ccc(C(=O)Oc3ccc(C(=N)N)cc3)cc2s1 [Example 61, 4-Carbamimidoylphenyl 2-(ethyl(3-methoxy-3-oxopropyl)amino)benzo[d]thiazole-6-carboxylate]	10 nM
CN(CCC(=O)O)c1nc2ccc(C(=O)Oc3ccc(C(=N)N)cc3)cc2s1 [Example 62, 3-((6-((4-Carbamimidoylphenoxy)carbonyl)benzo[d]thiazol-2-yl)(methyl)amino)propanoic Acid]	4.3 nM
COC(=O)CCCN(C)c1nc2ccc(C(=O)Oc3ccc(C(=N)N)cc3)cc2s1 [Example 63, 4-Carbamimidoylphenyl 2-((4-methoxy-4-oxobutyl)(methyl)amino)benzo[d]thiazole-6-carboxylate]	13 nM
CN(CCCC(=O)O)c1nc2ccc(C(=O)Oc3ccc(C(=N)N)cc3)cc2s1 [Example 64, 4-((6-((4-Carbamimidoylphenoxy)carbonyl)benzo[d]thiazol-2-yl)(methyl)amino)butanoic Acid]	6.4 nM
N=C(N)c1ccc(OC(=O)c2ccc3nc(NCCC(=O)O)sc3c2)cc1 [Example 65, 3-((6-((4-Carbamimidoylphenoxy)carbonyl)benzo[d]thiazol-2-yl)amino)propanoic Acid]	5.7 nM
CCN(CCC(=O)O)c1nc2ccc(C(=O)Oc3ccc(C(=N)N)cc3)cc2s1 [Example 66, 3-((6-((4-Carbamimidoylphenoxy)carbonyl)benzo[d]thiazol-2-yl)(ethyl)amino)propanoic Acid]	4.8 nM
COC(=O)C(C)(C)CNc1nc2ccc(C(=O)Oc3ccc(C(=N)N)cc3)cc2s1 [Example 67, 4-Carbamimidoylphenyl 2-((3-methoxy-2,2-dimethyl-3-oxopropyl)amino)benzo[d]thiazole-6-carboxylate]	19 nM
COC(=O)C(C)(C)CN(C)c1nc2ccc(C(=O)Oc3ccc(C(=N)N)cc3)cc2s1 [Example 68, 4-Carbamimidoylphenyl 2-((3-methoxy-2,2-dimethyl-3-oxopropyl)(methyl)amino)benzo[d]thiazole-6-carboxylate]	6 nM
CCN(CC(C)(C)C(=O)OC)c1nc2ccc(C(=O)Oc3ccc(C(=N)N)cc3)cc2s1 [Example 69, 4-Carbamimidoylphenyl 2-(ethyl(3-methoxy-2,2-dimethyl-3-oxopropyl)amino)benzo[d]thiazole-6-carboxylate]	21 nM
CCN(CC(C)(C)C(=O)OC)c1nc2ccc(C(=O)Oc3ccc(C(=N)N)cc3F)cc2s1 [Example 70, 4-Carbamimidoyl-2-fluorophenyl 2-(ethyl(3-methoxy-2,2-dimethyl-3-oxopropyl)amino)benzo[d]thiazole-6-carboxylate]	3.5 nM
COC(=O)CCCN(C)c1nc2ccc(C(=O)Oc3ccc(C(=N)N)cc3F)cc2s1 [Example 71, 4-Carbamimidoyl-2-fluorophenyl 2-((4-methoxy-4-oxobutyl)(methyl)amino)benzo[d]thiazole-6-carboxylate]	1.1 nM
COC(=O)CCN(C)c1nc2ccc(C(=O)Oc3ccc(C(=N)N)cc3F)cc2s1 [Example 72, 4-Carbamimidoyl-2-fluorophenyl 2-((3-methoxy-3-oxopropyl)(methyl)amino)benzo[d]thiazole-6-carboxylate]	1.3 nM
CC(C)(CNc1nc2ccc(C(=O)Oc3ccc(C(=N)N)cc3)cc2s1)C(=O)O [Example 73, 3-((6-((4-Carbamimidoylphenoxy)carbonyl)benzo[d]thiazol-2-yl)amino)-2,2-dimethylpropanoic Acid]	0.89 nM
CCN(CC(C)(C)C(=O)O)c1nc2ccc(C(=O)Oc3ccc(C(=N)N)cc3)cc2s1 [Example 74, 3-((6-((4-Carbamimidoylphenoxy)carbonyl)benzo[d]thiazol-2-yl)(ethyl) Amino)-2,2-dimethylpropanoic Acid]	8.9 nM
CCN(CC(C)(C)C(=O)O)c1nc2ccc(C(=O)Oc3ccc(C(=N)N)cc3F)cc2s1 [Example 75, 3-((6-((4-Carbamimidoyl-2-fluorophenoxy)carbonyl)benzo[d]thiazol-2-yl)(ethyl)amino)-2,2-dimethyl Propanoic Acid]	0.7 nM
CN(CCCC(=O)O)c1nc2ccc(C(=O)Oc3ccc(C(=N)N)cc3F)cc2s1 [Example 76, 4-((6-((4-Carbamimidoyl-2-fluorophenoxy)carbonyl)benzo[d]thiazol-2-yl)(methyl)amino)butanoic Acid]	0.57 nM
